This passage reports logP results from the SangsterLogP compilation.

The nature of the data set: method code SF-AS/HPLC, from DOI: 10.1039/a908863f.
With `C=CC(=O)OCC(C)(C)COC(=O)C=C`, the logP was determined as 2.5.

For `C=CC(=O)OCCOCCOCCOCCOC(=O)C=C`, the logP came out at 0.47.

Compound `C=CC(=O)OCCCCCCOC(=O)C=C` showed a logP of 3.08.

As to `C=CC(=O)OCCOCCOC(=O)C=C`, the logP was determined as 0.79.

Regarding `C=CC(=O)OCCOCCOCCOC(=O)C=C`, the logP was found to be 0.65.

`C=CC(=O)OCCCCCCCCCCCCCCCCCC` came in with a logP of 7.1.

On to `C=CC(=O)OC(C)COc1ccc(C(C)(C)c2ccc(OCC(C)OC(=O)C=C)cc2)cc1` (stereo not drawn), for which the logP came to 6.1.

With `C=CC(=O)OCCCOC(=O)C=C`, the logP is 0.87.

On to `C=CC(=O)OCC(CC)(COC(=O)C=C)COC(=O)C=C`, for which the logP is 2.75.

Turning to `C=CC(=O)OCCCCCCCCCC`, the logP worked out at 5.46.

Compound `C=CC(=O)Oc1ccccc1` gave a logP of 1.94.

Turning to `C=CC(=O)OCCOCCO`, the logP is -0.3.

`C=CC(=O)OCC(COC(=O)C=C)(COC(=O)C=C)COC(=O)C=C` had a log partition coefficient (logP) of 2.23.
